Assay results as given in ChEMBL document CHEMBL1153754, “1-Aryl-3,4-dihydroisoquinoline inhibitors of JNK3” (Bioorg Med Chem Lett, 2009).

The molecules below were run against Serine/threonine-protein kinase PLK1 (Homo sapiens, UniProt P53350) (assay: Inhibition of PLK1).

IC50 [µM]	SMILES
> 10	COc1cc2c(cc1Cl)C(c1ccc(Cl)c(Cl)c1)=NCC2
> 10	COc1cc2c(cc1Cl)C(c1cccc(Cl)c1)=NCC2

What follows are molecules tested against Receptor tyrosine-protein kinase erbB-2 (Homo sapiens, UniProt P04626) (assay: Inhibition of ErbB2).
Chain of Receptor tyrosine-protein kinase erbB-2 (P04626 whole entry): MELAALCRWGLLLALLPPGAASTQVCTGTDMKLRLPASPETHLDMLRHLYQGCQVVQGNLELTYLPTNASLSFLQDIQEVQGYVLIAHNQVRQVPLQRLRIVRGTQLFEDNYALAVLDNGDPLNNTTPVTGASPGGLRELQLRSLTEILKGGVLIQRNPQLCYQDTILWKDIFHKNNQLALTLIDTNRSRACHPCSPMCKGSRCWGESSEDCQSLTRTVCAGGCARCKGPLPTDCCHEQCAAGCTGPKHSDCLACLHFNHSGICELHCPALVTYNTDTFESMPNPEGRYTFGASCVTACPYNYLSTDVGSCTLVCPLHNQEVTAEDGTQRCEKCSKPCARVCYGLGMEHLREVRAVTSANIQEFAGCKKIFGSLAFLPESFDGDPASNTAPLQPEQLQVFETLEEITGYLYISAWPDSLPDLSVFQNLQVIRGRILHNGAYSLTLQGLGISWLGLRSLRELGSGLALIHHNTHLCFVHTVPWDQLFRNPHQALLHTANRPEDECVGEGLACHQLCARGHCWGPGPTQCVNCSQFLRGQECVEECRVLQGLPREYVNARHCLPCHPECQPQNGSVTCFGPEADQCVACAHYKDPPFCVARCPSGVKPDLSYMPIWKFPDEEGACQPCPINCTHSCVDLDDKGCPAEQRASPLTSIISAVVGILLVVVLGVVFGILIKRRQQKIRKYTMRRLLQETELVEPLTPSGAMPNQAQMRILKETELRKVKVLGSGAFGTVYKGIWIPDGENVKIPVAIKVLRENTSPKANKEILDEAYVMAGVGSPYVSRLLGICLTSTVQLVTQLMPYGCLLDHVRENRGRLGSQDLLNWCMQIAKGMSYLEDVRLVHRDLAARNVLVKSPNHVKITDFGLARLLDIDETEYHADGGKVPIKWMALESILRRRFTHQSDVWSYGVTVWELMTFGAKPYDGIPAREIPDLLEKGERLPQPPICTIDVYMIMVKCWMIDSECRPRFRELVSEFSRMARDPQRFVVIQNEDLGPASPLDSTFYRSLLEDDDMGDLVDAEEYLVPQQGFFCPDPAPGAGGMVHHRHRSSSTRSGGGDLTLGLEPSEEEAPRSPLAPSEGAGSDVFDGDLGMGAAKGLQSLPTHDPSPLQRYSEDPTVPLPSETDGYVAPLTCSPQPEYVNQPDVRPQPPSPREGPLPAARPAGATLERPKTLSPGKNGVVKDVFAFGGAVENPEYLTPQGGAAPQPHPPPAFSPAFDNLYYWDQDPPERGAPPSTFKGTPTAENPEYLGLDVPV

IC50 [µM]	SMILES
> 10	COc1cc2c(cc1Cl)C(c1ccc(Cl)c(Cl)c1)=NCC2
> 10	COc1cc2c(cc1Cl)C(c1cccc(Cl)c1)=NCC2

The molecules below were run against T1, Mitogen-activated protein kinase 10 (Homo sapiens, UniProt P53779) (assay: Inhibition of JNK3 by high throughput screening).
T1 sequence (P53779 whole entry): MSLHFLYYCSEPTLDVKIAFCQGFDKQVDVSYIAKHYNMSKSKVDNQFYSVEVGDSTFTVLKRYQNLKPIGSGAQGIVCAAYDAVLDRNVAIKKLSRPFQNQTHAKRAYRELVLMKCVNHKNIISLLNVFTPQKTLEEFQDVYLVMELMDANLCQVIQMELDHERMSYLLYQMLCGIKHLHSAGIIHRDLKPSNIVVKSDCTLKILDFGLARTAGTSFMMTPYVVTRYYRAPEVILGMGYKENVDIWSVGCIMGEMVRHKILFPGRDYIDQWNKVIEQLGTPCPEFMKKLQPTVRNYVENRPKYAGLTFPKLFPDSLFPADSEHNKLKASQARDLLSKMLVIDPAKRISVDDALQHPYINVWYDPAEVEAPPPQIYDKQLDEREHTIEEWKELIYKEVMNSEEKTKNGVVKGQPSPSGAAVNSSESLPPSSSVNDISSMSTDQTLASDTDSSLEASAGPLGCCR

IC50 [µM]	SMILES
10	COc1cc2c(cc1OC)C(c1cccc(Cl)c1)=NCC2
0.00126	O=C(NC1CCNCC1)c1cccc(-c2n[nH]c3cc(Nc4ccccc4Cl)ccc23)c1

Each molecule was assayed against Serine/threonine-protein kinase B-raf (Homo sapiens, UniProt P15056) (assay: Inhibition of B-Raf).

IC50 [µM]	SMILES
> 10	COc1cc2c(cc1Cl)C(c1ccc(Cl)c(Cl)c1)=NCC2
> 10	COc1cc2c(cc1Cl)C(c1cccc(Cl)c1)=NCC2

These molecules were tested against T1, Mitogen-activated protein kinase 10 (assay: Inhibition of N-terminal histidine-tagged human full length JNK3 by radiometric filter binding assay).

IC50 [nM]	SMILES
50.1	COc1cc2c(cc1Cl)C(c1ccc(Cl)c(Cl)c1)=NCC2
126	COc1cc2c(cc1Cl)C(c1cccc(Cl)c1)=NCC2

What follows are molecules tested against Mitogen-activated protein kinase kinase kinase 11 (Homo sapiens, UniProt Q16584) (assay: Inhibition of MLK3).

IC50 [µM]	SMILES
> 10	COc1cc2c(cc1Cl)C(c1ccc(Cl)c(Cl)c1)=NCC2
> 10	COc1cc2c(cc1Cl)C(c1cccc(Cl)c1)=NCC2

These molecules were tested against T2, Mitogen-activated protein kinase 14 (Homo sapiens, UniProt Q16539) (assay: Inhibition of histidine-tagged human recombinant p38alpha after 120 mins by TR-FRET assay).
T2 sequence (Q16539 whole entry): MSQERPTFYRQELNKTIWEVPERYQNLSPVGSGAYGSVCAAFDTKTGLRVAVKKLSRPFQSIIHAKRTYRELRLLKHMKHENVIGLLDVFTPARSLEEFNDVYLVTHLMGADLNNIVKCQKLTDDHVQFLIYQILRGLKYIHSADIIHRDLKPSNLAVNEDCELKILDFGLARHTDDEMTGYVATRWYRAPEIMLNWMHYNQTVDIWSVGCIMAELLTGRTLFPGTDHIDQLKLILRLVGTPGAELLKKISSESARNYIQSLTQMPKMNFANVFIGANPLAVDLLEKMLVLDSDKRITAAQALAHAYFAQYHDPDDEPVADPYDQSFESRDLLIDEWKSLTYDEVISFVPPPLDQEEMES

IC50 [µM]	SMILES
> 15.8	COc1cc2c(cc1Cl)CCN=C2c1ccccc1
> 15.8	COc1cc2c(cc1Cl)CCN=C2c1cccc(Cl)c1
> 15.8	COc1cc2c(cc1Cl)CCN=C2c1ccc(Cl)c(Cl)c1
> 15.8	COc1cc2c(cc1Cl)CCN=C2c1cccc(F)c1
> 15.8	COc1cc2c(cc1Cl)CCN=C2c1ccc(F)cc1
> 15.8	COc1cc2c(cc1Cl)CCN=C2c1ccc2ccccc2c1
> 15.8	COc1cc2c(cc1Cl)CCN=C2c1cccc(Br)c1
> 15.8	COc1cc2c(cc1OC)C(c1ccccc1)=NCC2

These molecules were tested against T3, Mitogen-activated protein kinase 8 (Homo sapiens, UniProt P45983) (assay: Inhibition of JNK1 by high throughput screening).
T3 sequence (P45983 whole entry): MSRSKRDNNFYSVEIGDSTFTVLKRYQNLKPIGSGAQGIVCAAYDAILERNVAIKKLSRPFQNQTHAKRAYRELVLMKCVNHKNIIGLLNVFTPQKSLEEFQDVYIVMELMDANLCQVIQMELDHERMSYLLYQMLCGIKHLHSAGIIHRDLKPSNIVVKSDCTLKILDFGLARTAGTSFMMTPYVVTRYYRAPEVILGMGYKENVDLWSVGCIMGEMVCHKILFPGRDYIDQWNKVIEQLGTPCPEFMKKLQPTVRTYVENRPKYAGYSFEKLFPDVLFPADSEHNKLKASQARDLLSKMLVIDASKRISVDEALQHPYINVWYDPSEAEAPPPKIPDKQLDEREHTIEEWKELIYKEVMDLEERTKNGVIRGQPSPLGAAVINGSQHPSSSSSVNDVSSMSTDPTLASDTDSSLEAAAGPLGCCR

IC50 [nM]	SMILES
79.4	O=C(NC1CCNCC1)c1cccc(-c2n[nH]c3cc(Nc4ccccc4Cl)ccc23)c1

The molecules below were run against Glycogen synthase kinase-3 beta (Homo sapiens, UniProt P49841) (assay: Inhibition of GSK3-beta).
Chain of Glycogen synthase kinase-3 beta (P49841 whole entry): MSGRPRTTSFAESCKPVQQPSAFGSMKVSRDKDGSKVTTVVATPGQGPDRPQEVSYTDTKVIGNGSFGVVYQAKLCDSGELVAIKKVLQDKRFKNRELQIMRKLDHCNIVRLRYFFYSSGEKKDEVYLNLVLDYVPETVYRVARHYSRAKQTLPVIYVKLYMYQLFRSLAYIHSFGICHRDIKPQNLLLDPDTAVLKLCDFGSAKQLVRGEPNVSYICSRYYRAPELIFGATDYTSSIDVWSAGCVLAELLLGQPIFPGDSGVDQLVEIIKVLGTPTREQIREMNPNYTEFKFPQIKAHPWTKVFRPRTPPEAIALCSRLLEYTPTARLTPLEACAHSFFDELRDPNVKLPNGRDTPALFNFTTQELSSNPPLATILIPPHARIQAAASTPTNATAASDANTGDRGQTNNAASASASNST

IC50 [µM]	SMILES
> 10	COc1cc2c(cc1Cl)C(c1ccc(Cl)c(Cl)c1)=NCC2
> 10	COc1cc2c(cc1Cl)C(c1cccc(Cl)c1)=NCC2

Each molecule was assayed against Mitogen-activated protein kinase 1 (Homo sapiens, UniProt P28482) (assay: Inhibition of N-terminal GST-tagged human full length Erk2 by radiometric filter binding assay).
Chain of Mitogen-activated protein kinase 1 (P28482 whole entry): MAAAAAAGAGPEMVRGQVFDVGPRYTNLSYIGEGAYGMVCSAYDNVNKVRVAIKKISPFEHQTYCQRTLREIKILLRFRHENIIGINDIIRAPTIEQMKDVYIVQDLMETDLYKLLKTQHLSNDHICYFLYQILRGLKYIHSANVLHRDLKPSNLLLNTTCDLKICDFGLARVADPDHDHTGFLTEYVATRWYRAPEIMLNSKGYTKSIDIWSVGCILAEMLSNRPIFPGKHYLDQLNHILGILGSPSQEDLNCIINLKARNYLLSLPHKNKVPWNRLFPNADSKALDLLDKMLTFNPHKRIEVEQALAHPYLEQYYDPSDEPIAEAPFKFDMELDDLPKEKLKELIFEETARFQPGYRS

IC50 [µM]	SMILES
> 100	COc1cc2c(cc1Cl)C(c1ccc(Cl)c(Cl)c1)=NCC2
> 100	COc1cc2c(cc1Cl)C(c1cccc(Cl)c1)=NCC2

Each molecule was assayed against Mitogen-activated protein kinase 9 (Homo sapiens, UniProt P45984) (assay: Inhibition of N-terminal histidine-tagged human full length JNK2-alpha-2 by radiometric filter binding assay).
Chain of Mitogen-activated protein kinase 9 (P45984 whole entry): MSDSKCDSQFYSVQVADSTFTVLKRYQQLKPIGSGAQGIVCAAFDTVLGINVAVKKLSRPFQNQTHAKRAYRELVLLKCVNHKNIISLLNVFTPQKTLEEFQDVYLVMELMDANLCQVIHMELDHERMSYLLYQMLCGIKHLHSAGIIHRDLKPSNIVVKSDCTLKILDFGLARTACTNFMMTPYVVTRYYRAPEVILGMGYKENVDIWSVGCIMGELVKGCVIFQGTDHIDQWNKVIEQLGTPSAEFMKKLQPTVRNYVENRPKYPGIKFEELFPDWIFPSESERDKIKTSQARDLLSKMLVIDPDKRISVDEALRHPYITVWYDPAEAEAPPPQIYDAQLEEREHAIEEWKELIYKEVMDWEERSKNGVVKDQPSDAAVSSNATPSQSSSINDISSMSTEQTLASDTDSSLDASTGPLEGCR

IC50 [nM]	SMILES
794	COc1cc2c(cc1Cl)C(c1ccc(Cl)c(Cl)c1)=NCC2
1260	COc1cc2c(cc1Cl)C(c1cccc(Cl)c1)=NCC2

These molecules were tested against T2, Mitogen-activated protein kinase 14 (assay: Inhibition of N-terminal GST-tagged p38alpha expressed in Escherichia coli by fluorescence anisotropy).

IC50 [µM]	SMILES
7.94	COc1cc2c(cc1Cl)C(c1ccc(Cl)c(Cl)c1)=NCC2
7.94	COc1cc2c(cc1Cl)C(c1cccc(Cl)c1)=NCC2

Each molecule was assayed against Rho-associated protein kinase 1 (Homo sapiens, UniProt Q13464) (assay: Inhibition of ROCK1).

IC50 [µM]	SMILES
> 10	COc1cc2c(cc1Cl)C(c1ccc(Cl)c(Cl)c1)=NCC2
> 10	COc1cc2c(cc1Cl)C(c1cccc(Cl)c1)=NCC2

The molecules below were run against T4, Serine/threonine-protein kinase Sgk1 (Homo sapiens, UniProt O00141) (assay: Inhibition of SGK1).
T4 sequence (O00141 whole entry): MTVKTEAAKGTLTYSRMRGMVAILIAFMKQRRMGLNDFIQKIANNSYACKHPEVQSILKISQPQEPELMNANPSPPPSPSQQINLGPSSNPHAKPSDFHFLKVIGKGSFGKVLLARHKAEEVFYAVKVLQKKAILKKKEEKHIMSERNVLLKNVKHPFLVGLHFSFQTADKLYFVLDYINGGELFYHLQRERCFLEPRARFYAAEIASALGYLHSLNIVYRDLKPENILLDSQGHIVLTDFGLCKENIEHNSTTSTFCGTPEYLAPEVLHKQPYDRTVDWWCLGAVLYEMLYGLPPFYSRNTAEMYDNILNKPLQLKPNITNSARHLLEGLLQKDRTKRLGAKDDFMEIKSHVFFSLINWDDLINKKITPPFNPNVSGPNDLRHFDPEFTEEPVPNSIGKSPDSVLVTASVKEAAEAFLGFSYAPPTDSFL

IC50 [µM]	SMILES
> 10	COc1cc2c(cc1Cl)C(c1ccc(Cl)c(Cl)c1)=NCC2
> 10	COc1cc2c(cc1Cl)C(c1cccc(Cl)c1)=NCC2

What follows are molecules tested against T2, Mitogen-activated protein kinase 14 (assay: Inhibition of p38alpha by high throughput screening).

IC50 [nM]	SMILES
3.98	O=C(NC1CCNCC1)c1cccc(-c2n[nH]c3cc(Nc4ccccc4Cl)ccc23)c1

The molecules below were run against T5, Inhibitor of nuclear factor kappa-B kinase subunit beta (Homo sapiens, UniProt O14920) (assay: Inhibition of IKK-beta).
T5 sequence (O14920 whole entry): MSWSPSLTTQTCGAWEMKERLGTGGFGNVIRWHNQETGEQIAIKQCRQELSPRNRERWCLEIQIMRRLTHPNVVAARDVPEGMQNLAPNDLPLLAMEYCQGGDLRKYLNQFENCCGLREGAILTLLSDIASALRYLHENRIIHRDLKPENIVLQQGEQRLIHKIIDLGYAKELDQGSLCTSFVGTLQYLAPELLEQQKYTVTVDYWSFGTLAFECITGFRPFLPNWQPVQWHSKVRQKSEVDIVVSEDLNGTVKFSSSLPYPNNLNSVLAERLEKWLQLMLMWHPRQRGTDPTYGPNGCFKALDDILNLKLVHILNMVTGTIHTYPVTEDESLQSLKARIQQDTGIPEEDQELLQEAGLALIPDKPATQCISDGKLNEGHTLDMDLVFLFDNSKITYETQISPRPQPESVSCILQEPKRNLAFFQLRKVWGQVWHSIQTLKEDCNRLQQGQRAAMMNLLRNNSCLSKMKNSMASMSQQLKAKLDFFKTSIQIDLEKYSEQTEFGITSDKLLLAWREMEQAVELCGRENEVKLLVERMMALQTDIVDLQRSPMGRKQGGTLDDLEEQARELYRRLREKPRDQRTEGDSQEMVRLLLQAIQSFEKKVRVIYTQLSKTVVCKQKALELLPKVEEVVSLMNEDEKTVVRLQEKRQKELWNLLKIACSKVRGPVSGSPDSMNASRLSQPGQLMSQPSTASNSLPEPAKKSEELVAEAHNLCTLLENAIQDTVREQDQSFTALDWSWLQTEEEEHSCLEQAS

IC50 [µM]	SMILES
> 10	COc1cc2c(cc1Cl)C(c1ccc(Cl)c(Cl)c1)=NCC2
> 10	COc1cc2c(cc1Cl)C(c1cccc(Cl)c1)=NCC2

What follows are molecules tested against T6, Inhibitor of nuclear factor kappa-B kinase subunit alpha (Homo sapiens, UniProt O15111) (assay: Inhibition of IKKalpha).
T6 sequence (O15111 whole entry): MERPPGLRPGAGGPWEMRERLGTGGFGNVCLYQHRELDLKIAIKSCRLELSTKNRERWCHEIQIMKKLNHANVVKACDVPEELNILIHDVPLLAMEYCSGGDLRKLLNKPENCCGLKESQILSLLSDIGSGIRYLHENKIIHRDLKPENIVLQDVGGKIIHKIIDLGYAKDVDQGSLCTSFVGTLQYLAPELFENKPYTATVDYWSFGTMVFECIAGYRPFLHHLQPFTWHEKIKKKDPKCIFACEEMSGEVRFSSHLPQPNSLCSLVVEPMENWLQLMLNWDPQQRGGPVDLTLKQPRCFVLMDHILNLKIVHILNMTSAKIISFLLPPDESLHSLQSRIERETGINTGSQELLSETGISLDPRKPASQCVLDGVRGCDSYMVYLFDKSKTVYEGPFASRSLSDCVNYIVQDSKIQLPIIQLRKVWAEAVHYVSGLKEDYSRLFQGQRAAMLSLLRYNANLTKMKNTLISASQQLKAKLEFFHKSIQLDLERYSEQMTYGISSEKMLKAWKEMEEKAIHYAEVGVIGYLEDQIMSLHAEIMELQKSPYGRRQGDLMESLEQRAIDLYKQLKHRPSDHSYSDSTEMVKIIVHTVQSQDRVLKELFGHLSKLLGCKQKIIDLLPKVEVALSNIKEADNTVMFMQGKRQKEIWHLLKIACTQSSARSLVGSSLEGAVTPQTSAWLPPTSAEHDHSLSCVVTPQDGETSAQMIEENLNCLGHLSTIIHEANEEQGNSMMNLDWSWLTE

IC50 [µM]	SMILES
> 10	COc1cc2c(cc1Cl)C(c1ccc(Cl)c(Cl)c1)=NCC2
> 10	COc1cc2c(cc1Cl)C(c1cccc(Cl)c1)=NCC2

The molecules below were run against T3, Mitogen-activated protein kinase 8 (assay: Inhibition of N-terminal histidine-tagged human full length JNK1-alpha-1 by radiometric filter binding assay).

IC50 [µM]	SMILES
100	COc1cc2c(cc1Cl)C(c1ccc(Cl)c(Cl)c1)=NCC2
> 100	COc1cc2c(cc1Cl)C(c1cccc(Cl)c1)=NCC2

Each molecule was assayed against Cyclin-dependent kinase 2 (Homo sapiens, UniProt P24941) (assay: Inhibition of CDK2).

IC50 [µM]	SMILES
> 10	COc1cc2c(cc1Cl)C(c1ccc(Cl)c(Cl)c1)=NCC2
> 10	COc1cc2c(cc1Cl)C(c1cccc(Cl)c1)=NCC2

These molecules were tested against T1, Mitogen-activated protein kinase 10 (assay: Inhibition of N-terminal His(6)-tagged truncated human JNK3 transfected in baculovirus expression system by fluorescence anisotropy).

IC50 [µM]	SMILES
> 15.8	COc1cc2c(cc1Cl)CCN=C2c1ccccc1
12.6	COc1cc2c(cc1Cl)CCN=C2c1cccc(Cl)c1
15.8	COc1cc2c(cc1Cl)CCN=C2c1ccc(Cl)c(Cl)c1
> 15.8	COc1cc2c(cc1Cl)CCN=C2c1cccc(F)c1
> 15.8	COc1cc2c(cc1Cl)CCN=C2c1ccc(F)cc1
0.316	COc1cc2c(cc1Cl)C(c1ccc(Cl)c(Cl)c1)=NCC2
> 15.8	COc1cc2c(cc1Cl)CCN=C2c1ccc2ccccc2c1
0.251	COc1cc2c(cc1Cl)C(c1cccc(Cl)c1)=NCC2
10	COc1cc2c(cc1Cl)CCN=C2c1cccc(Br)c1
> 15.8	COc1cc2c(cc1OC)C(c1ccccc1)=NCC2

These molecules were tested against Tyrosine-protein kinase Lck (Homo sapiens, UniProt P06239).

IC50 [µM]	SMILES
> 10	COc1cc2c(cc1Cl)C(c1cccc(Cl)c1)=NCC2

Each molecule was assayed against Macrophage colony-stimulating factor 1 receptor (Homo sapiens, UniProt P07333) (assay: Inhibition of c-Fms).
Chain of Macrophage colony-stimulating factor 1 receptor (P07333 whole entry): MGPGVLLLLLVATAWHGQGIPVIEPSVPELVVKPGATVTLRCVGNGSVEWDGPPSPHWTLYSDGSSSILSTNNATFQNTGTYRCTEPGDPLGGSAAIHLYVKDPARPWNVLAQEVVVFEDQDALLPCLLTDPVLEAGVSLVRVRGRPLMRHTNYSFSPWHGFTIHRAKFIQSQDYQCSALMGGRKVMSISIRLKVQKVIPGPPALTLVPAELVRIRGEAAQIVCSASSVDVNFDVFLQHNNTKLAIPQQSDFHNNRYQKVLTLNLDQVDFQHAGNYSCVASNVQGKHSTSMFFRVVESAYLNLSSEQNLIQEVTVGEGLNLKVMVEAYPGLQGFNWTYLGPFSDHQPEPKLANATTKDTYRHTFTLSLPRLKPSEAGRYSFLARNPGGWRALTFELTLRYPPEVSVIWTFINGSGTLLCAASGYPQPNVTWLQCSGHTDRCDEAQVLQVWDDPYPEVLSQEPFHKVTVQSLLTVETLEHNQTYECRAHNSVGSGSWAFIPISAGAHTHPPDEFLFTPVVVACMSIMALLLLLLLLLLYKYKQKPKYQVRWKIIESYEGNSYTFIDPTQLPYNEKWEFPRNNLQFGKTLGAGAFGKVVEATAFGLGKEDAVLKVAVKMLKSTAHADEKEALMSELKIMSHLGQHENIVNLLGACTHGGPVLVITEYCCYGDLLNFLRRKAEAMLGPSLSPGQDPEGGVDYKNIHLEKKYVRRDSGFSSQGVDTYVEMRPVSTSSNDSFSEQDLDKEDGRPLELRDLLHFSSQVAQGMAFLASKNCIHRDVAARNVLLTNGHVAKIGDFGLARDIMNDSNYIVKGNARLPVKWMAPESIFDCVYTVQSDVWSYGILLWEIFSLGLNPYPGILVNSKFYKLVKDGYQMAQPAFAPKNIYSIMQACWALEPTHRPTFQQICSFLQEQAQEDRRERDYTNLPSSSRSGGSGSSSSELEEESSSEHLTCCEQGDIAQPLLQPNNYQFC

IC50 [µM]	SMILES
> 10	COc1cc2c(cc1Cl)C(c1ccc(Cl)c(Cl)c1)=NCC2
> 10	COc1cc2c(cc1Cl)C(c1cccc(Cl)c1)=NCC2
